Values quoted from earlier work as cited in patent US20230414692A1, “ETHANOLIC EXTRACT OF SEEDS OF SOLANUM MELONGENA, METHOD FOR OBTAINING IT, PHARMACEUTICAL COMPOSITION CONTAINING IT AND USE THEREOF AS AN ANTITUMOUR AGENT” (UNIVERSIDAD DE GRANADA, priority 2020, published 2023).

Experiments:
[1] = tested on: 143B.TK osteosarcoma cell line; conditions: Cohen et al., 1996
[2] = tested on: NIE.115 neuroblastoma cell line; conditions: Cohen et al., 1996

C/C=C(/C)C(=O)O[C@H]1C[C@@H](OC(C)=O)[C@@]2(C)CO[C@H]3[C@H]4O[C@@H]5C[C@@H](c6ccoc6)C(C)=C5[C@@]4(C)[C@H](CC(=O)OC)[C@]1(C)[C@@H]32 [Salannin]
IC50 [1]: 89 ± 12 µM
IC50 [2]: 133 ± 6 µM
